Tests used:
[1] = biological target: T1, Serine/threonine-protein kinase 17A (Homo sapiens) (UniProt Q9UEE5); details: at 10 µM
T1 sequence (whole entry): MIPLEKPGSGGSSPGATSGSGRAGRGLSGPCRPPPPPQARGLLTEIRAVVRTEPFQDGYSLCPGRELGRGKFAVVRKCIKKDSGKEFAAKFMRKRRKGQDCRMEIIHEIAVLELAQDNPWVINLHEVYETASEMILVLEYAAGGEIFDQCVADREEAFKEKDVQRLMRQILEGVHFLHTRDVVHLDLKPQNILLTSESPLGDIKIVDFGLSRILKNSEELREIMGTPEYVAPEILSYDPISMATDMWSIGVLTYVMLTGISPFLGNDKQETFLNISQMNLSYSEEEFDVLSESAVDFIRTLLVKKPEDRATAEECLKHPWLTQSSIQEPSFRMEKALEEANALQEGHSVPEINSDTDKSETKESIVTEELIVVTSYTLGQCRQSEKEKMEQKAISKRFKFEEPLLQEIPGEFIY

[2] = biological target: Mitogen-activated protein kinase 14 (Homo sapiens, UniProt Q16539); test: Selectivity interaction (Kinase panel (DSF assay)) EUB0001559a MAPK14
[3] = biological target: MAP kinase-interacting serine/threonine-protein kinase 2 (Homo sapiens, UniProt Q9HBH9); test: Selectivity interaction (KinomeScan (DiscoverX)) EUB0001619a MKNK2; details: at 1 µM
MAP kinase-interacting serine/threonine-protein kinase 2, sequence (Q9HBH9 whole entry, looked up): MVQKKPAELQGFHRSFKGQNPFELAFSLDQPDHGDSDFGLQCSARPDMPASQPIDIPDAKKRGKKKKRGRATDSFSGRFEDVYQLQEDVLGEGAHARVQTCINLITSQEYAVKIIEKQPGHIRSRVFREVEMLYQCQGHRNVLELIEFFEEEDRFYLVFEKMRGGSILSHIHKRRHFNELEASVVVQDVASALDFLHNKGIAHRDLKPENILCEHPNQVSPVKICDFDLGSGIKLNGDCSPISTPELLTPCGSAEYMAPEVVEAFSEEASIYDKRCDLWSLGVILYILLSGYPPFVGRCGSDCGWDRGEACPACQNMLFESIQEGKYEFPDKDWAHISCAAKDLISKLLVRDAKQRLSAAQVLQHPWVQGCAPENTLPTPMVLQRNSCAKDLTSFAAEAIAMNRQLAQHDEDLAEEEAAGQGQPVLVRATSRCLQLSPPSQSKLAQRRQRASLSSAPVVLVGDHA

[4] = test system: Tyrosine-protein kinase ABL1 (Homo sapiens), P00519 [F317I]; test: Selectivity interaction (KinomeScan (DiscoverX)) EUB0000045b ABL1; details: at 1 µM
[5] = biological target: T2, Uncharacterized serine/threonine-protein kinase SBK3 (Homo sapiens) (UniProt P0C264); test: Selectivity interaction (KinomeScan (DiscoverX)) EUB0000045b SBK3
T2 sequence (whole entry): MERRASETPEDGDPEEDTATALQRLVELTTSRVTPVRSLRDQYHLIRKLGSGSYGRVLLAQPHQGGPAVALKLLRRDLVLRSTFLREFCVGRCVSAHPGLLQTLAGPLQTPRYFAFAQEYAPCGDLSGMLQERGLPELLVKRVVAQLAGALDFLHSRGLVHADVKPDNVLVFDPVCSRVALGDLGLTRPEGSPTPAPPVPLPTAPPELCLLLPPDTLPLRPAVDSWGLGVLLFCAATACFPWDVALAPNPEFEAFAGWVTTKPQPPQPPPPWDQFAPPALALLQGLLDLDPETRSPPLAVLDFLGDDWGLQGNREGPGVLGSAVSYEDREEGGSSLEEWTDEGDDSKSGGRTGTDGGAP

[6] = biological target: Serine/threonine-protein kinase RIO2 (Homo sapiens) (UniProt Q9BVS4); test: Selectivity interaction (KinomeScan (DiscoverX)) EUB0000595a RIOK2; details: at 10 µM
[7] = biological target: Phosphorylase b kinase gamma catalytic chain, skeletal muscle/heart isoform (Homo sapiens) (UniProt Q16816); test: Selectivity interaction (KinomeScan (DiscoverX)) EUB0000595a PHKG1; details: at 10 µM
Phosphorylase b kinase gamma catalytic chain, skeletal muscle/heart isoform (Homo sapiens), sequence (Q16816 whole entry, looked up, canonical isoform): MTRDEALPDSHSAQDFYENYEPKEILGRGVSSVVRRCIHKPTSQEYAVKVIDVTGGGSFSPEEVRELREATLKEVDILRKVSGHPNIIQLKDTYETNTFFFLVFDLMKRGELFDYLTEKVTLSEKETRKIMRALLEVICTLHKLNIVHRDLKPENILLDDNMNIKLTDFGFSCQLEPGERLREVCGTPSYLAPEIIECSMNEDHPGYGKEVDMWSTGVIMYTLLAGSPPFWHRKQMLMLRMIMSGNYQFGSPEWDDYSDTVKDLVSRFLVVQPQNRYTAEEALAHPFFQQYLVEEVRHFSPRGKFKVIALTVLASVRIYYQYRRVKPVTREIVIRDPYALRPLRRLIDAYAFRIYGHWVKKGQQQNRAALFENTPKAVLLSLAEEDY

[8] = biological target: T3, Aurora kinase A (Homo sapiens) (UniProt O14965); test: Selectivity interaction (ActivX KiNativ screen (kinase selectivity in THP-1 cell lysates)) EUB0000639a STK6; format: subcellular; details: lysate, at 0.01 µM
T3 sequence (whole entry): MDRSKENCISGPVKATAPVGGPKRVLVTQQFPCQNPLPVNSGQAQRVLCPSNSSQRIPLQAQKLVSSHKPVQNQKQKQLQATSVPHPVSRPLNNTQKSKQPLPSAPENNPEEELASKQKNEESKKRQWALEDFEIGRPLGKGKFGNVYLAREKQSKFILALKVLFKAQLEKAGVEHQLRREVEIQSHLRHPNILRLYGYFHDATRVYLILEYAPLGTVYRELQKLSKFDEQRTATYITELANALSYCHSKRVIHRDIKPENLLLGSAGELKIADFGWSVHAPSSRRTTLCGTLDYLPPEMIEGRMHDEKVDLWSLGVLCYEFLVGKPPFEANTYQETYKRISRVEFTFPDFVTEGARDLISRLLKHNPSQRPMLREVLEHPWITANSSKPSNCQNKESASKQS

[9] = biological target: Protein-tyrosine kinase 2-beta (Homo sapiens) (UniProt Q14289); test: Selectivity interaction (ActivX KiNativ screen (kinase selectivity in THP-1 cell lysates)) EUB0000639a PTK2B; format: subcellular; details: lysate, at 1 µM
Protein-tyrosine kinase 2-beta (Homo sapiens), sequence (Q14289 whole entry, looked up): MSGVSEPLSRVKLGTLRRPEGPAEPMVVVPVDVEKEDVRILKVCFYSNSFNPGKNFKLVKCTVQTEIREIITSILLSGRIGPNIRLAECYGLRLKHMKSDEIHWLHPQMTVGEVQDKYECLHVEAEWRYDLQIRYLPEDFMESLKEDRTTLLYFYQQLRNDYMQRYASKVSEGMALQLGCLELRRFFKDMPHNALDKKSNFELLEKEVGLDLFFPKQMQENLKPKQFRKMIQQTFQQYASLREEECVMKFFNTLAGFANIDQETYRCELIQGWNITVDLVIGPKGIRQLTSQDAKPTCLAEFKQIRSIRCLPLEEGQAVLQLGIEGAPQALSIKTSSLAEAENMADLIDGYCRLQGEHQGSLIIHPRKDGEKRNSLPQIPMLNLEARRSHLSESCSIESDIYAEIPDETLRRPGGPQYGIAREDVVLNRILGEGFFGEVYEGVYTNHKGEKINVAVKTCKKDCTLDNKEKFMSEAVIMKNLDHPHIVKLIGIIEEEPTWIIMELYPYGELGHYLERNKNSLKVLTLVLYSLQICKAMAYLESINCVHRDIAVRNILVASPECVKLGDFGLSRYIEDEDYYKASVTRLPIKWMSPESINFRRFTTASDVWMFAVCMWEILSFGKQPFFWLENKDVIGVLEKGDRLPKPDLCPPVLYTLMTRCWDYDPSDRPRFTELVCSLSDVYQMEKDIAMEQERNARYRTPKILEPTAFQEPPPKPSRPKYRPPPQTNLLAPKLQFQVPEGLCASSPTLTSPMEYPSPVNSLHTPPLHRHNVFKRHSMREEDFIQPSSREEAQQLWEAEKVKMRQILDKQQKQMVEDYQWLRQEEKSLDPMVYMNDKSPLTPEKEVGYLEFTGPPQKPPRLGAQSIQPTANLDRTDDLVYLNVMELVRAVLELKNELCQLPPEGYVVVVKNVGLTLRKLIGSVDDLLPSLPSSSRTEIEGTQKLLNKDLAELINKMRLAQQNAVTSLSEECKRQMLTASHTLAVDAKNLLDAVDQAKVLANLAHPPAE

[10] = biological target: Sodium-dependent noradrenaline transporter (Homo sapiens, UniProt P23975); test: Selectivity interaction (Panel of kinases, GPCRs, ion channels and transporters (enzymatic assay)) EUB0000266bCl SLC6A2
Sodium-dependent noradrenaline transporter, sequence (P23975 whole entry): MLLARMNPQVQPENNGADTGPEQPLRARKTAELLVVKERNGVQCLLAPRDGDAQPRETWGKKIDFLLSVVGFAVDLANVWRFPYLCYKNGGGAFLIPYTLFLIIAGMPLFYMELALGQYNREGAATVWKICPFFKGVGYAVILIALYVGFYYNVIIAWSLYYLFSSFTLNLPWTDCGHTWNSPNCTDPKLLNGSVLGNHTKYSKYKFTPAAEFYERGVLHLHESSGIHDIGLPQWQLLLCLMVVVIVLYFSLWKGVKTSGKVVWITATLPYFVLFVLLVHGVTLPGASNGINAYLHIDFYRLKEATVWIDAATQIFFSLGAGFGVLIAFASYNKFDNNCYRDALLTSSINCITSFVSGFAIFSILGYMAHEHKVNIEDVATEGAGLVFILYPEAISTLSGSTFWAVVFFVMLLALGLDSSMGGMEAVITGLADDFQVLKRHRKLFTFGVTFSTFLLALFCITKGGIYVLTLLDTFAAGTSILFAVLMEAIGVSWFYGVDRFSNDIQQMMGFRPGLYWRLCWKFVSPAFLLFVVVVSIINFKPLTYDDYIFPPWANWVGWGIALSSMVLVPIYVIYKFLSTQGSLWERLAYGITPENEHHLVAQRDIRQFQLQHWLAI

[11] = biological target: Activin receptor type-1-like (Homo sapiens) (UniProt P37023); test: Selectivity interaction (KinomeScan (DiscoverX)) EUB0000666a ACVRL1; details: at 10 µM
Activin receptor type-1-like (Homo sapiens), sequence (P37023 whole entry): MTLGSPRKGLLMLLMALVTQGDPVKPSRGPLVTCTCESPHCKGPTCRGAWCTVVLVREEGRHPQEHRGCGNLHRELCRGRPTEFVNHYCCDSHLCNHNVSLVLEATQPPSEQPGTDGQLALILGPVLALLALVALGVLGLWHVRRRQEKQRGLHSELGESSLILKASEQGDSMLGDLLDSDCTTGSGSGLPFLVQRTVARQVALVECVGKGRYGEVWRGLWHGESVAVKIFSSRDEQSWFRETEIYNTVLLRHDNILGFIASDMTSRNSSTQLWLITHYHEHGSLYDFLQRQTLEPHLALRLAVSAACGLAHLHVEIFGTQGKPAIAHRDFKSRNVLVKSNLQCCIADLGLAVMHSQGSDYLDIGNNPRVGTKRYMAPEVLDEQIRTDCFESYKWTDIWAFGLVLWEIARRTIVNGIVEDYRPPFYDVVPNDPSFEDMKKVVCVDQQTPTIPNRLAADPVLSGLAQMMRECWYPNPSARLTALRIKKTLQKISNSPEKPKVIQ

[12] = biological target: Serine/threonine-protein kinase OSR1 (Homo sapiens) (UniProt O95747); test: Selectivity interaction (KinomeScan (DiscoverX)) EUB0000666a OXSR1; details: at 10 µM
Serine/threonine-protein kinase OSR1 (Homo sapiens), sequence (O95747 2-527 limits assumed): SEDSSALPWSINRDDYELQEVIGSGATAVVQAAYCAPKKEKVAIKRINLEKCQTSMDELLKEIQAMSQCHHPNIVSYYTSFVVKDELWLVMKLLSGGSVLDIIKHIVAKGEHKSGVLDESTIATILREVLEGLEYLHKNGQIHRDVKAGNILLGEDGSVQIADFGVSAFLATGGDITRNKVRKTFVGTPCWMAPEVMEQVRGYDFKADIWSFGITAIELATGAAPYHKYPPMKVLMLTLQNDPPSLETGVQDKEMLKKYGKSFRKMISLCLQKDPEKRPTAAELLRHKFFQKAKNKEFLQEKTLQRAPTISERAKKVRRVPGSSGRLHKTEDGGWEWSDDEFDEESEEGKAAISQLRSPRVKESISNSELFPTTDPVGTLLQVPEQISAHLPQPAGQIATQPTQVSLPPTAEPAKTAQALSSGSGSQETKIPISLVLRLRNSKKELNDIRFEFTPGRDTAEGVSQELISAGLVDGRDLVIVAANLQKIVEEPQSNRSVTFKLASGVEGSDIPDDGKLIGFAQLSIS

[13] = biological target: Serine/threonine-protein kinase 26 (Homo sapiens, UniProt Q9P289); test: Selectivity interaction (Kinase panel (Z-LYTE Assay)) EUB0001632a STK26; details: at 10 µM
Serine/threonine-protein kinase 26, sequence (Q9P289 2-416 limits assumed): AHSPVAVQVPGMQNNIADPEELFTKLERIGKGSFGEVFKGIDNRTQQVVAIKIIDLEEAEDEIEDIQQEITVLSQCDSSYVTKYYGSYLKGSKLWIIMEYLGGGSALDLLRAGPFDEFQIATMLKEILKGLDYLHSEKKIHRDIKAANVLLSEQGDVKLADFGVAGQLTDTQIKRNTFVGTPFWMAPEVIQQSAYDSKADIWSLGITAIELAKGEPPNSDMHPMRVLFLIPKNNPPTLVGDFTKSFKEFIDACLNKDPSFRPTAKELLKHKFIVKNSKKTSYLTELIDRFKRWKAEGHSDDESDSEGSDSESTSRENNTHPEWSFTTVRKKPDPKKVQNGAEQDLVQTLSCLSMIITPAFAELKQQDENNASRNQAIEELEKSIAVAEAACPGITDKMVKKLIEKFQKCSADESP

[14] = biological target: Ribosomal protein S6 kinase alpha-5 (Homo sapiens) (UniProt O75582); test: Selectivity interaction (Kinase panel (Z-LYTE Assay)) EUB0001632a RPS6KA5; details: at 10 µM
Ribosomal protein S6 kinase alpha-5 (Homo sapiens), sequence (O75582 whole entry, looked up): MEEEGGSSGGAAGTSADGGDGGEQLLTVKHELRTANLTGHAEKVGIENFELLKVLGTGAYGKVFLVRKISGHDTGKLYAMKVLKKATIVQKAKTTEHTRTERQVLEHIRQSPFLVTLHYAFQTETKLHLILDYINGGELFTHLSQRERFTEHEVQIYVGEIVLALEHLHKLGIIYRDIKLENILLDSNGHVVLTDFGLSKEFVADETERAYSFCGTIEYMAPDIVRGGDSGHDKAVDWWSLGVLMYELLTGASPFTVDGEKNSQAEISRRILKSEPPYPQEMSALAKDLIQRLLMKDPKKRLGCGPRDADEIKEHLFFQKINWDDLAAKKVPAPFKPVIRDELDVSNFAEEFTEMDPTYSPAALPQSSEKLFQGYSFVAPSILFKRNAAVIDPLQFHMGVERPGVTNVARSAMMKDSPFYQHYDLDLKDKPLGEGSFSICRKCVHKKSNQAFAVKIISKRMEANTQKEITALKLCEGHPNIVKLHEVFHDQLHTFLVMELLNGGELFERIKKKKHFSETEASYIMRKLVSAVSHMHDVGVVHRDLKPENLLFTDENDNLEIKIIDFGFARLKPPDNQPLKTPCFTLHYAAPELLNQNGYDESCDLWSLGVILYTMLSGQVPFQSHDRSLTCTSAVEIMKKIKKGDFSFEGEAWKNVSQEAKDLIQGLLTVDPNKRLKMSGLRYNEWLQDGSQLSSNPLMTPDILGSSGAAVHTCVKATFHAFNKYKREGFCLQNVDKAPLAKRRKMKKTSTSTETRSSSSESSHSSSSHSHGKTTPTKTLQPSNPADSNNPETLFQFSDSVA

SMILES: CCN(CC)CCCCNc1ncc2cc(-c3cc(OC)cc(OC)c3)c(NC(=O)NC(C)(C)C)nc2n1
- % of control [1]: 100%

SMILES: CN(C(=O)c1cnn2cccnc12)c1cc2c(cc1N1CCOCC1)C(=O)N(C[C@@H](F)C(C)(C)O)C2
- dTM [2]: -0.3 K

SMILES: N#Cc1cccc(-c2c[nH]c3ncnc(N4CCOCC4)c23)c1
- % of control [3]: 90%

SMILES: C=CC(=O)Nc1cc(-n2c(=O)ccc3cnc4ccc(-c5ccc(NS(C)(=O)=O)cc5)cc4c32)ccc1C
- % of control [4]: 81%
- % of control ([5]; at 1 µM): 100%
- % of control ([5]; at 10 µM): 100%

SMILES: COCC(=O)NC/C=C/c1ccc2ncnc(Nc3ccc(Oc4ccc(C)nc4)c(C)c3)c2c1 [CP-724714]
- % of control [6]: 100%
- % of control [7]: 100%

SMILES: CC[C@@H]1[C@H](F)C(=O)N[C@@H]1COc1nccc2cc(C(N)=O)c(OC)cc12 [ZIMLOVISERTIB]
- % of inhibition [8]: 4.9%
- % of inhibition [9]: -3.6%

SMILES: CCn1c(-c2nc3cc(C(=O)N4CCCC(N)C4)ccc3n2C)cc2ccccc21 (stereo not given)
- pXC50 [10]: 4.4 M

SMILES: O=C(NOC[C@H](O)CO)c1ccc(F)c(F)c1Nc1ccc(I)cc1F
- % of control [11]: 100%
- % of control [12]: 100%

SMILES: Cn1cc(-n2cnc3c(NCc4nc5cc(Cl)c(Cl)cc5[nH]4)nc(N4CCOCC4)nc32)cn1
- % of control [13]: 2.09%
- % of control [14]: 0.545%

Reference: ChEMBL document CHEMBL5465560, “Selectivity Literature for EUbOPEN Chemogenomic Library” (2024)
